Experimental data published in ChEMBL document CHEMBL1152106, “Derivatives of 5-amidine indole as inhibitors of thrombin catalytic activity” (Bioorg Med Chem Lett, 1996).

target: T1, Prothrombin (Homo sapiens, UniProt P00734); assay: Compound was evaluated for inhibition of human alpha-thrombin catalytic activity.

Row | Structure (SMILES) | IC50 [µM]
1 | Cc1c(-c2ccccc2)[nH]c2ccc(C(=N)N)cc12 | 66
2 | N=C(N)c1ccc2[nH]ccc2c1 | 22
3 | N=C(N)c1ccc2[nH]c(Cc3ccccc3)cc2c1 | 1.4
4 | N=C(N)c1ccc2[nH]c(-c3ccccc3)cc2c1 | 19
5 | N=C(N)c1ccc2[nH]c(-c3ccccc3O)cc2c1 | 38
6 | N=C(N)c1ccc2[nH]c3c(c2c1)CCCC3 | 20
7 | N=C(N)c1ccc2[nH]c(Cc3cccc(CCc4ccccc4)c3)cc2c1 | 2.4

More lines, now with the values ahead:

Row | IC50 [µM] | Structure (SMILES)
8 | 36 | N=C(N)c1ccc2[nH]c(Cc3ccccc3F)cc2c1
9 | 59 | NCc1ccc2[nH]c(C(Cc3ccccc3F)c3ccccc3F)cc2c1 (configuration not stated)
10 | 15 | N=C(N)c1ccc2[nH]c(C(Cc3ccccc3F)c3ccccc3F)cc2c1 (configuration not stated)
11 | 2 | N=C(N)c1ccc2[nH]c(Cc3cccc(Oc4ccccc4)c3)cc2c1

target: T1, Prothrombin; assay: Compound was evaluated for inhibition of human alpha-thrombin catalytic activity

Row | Ki [µM] | Structure (SMILES)
12 | 0.26 | N=C(N)c1ccc2[nH]c(Cc3ccccc3)cc2c1
